Source: patent publication US11285226B2, “Aryl ethene derivative and pharmaceutical composition containing same as active ingredient” (priority 2016, dated 2022)

Legend:
[1] = biological target: ERR alpha LBD (Homo sapiens (Human), UniProt P11474); details: read-out: Binding Assay, IC50 ERRα
Experimental: (§3) The arylethene derivative of the present invention was sequentially added to a 384 well plate from a concentration of 10 μM to a final concentration of two-fold dilution. […] After all reagents were added, a reaction was carried out with gentle shaking at 20° C. for 1 hour, and after the reaction, a binding activity was measured by a TR-FRET method.

[2] = biological target: ER alpha ligand-binding domain (LBD) (Homo sapiens (Human), UniProt P03372); details: beta-estradiol 4 nM as agonist; read-out: Binding Assay, IC50 ERα
Experimental: as §3

[3] = assay type: in vitro ADME, dog; details: 1 μM, 30 minutes, 37° C.
Experimental: 2) Microsomal Stability Evaluation
(§4) Four liver microsomes (Human, Dog, Rat, Mouse 0.5 mg/ml) with a 0.1 M phosphate buffer solution (pH 7.4), and the arylethene derivative of the present invention were added to a concentration of 1 μM, culturing was performed at 37° C. for 5 minutes in advance, a NADPH regeneration system solution was added thereto, and culturing was performed at 37° C. for 30 minutes. Thereafter, in order to complete the reaction, an acetonitrile solution containing an internal standard material (chlorpropamide) was added thereto, centrifugation (14,000 rpm, 4° C.) was performed for 5 minutes, and a supernatant was injected into a LC-MS/MS system to analyze the substrate drug, thereby evaluating metabolism stability to the arylethene derivative of the present invention.

[4] = biological target: CYP2C9 (Homo sapiens (Human), UniProt P11712); assay: Cytochrome P450 activity inhibition, CYP2C9; assay type: in vitro ADME; details: 10 μM, human liver microsomes
CYP2C9, sequence (P11712 whole entry): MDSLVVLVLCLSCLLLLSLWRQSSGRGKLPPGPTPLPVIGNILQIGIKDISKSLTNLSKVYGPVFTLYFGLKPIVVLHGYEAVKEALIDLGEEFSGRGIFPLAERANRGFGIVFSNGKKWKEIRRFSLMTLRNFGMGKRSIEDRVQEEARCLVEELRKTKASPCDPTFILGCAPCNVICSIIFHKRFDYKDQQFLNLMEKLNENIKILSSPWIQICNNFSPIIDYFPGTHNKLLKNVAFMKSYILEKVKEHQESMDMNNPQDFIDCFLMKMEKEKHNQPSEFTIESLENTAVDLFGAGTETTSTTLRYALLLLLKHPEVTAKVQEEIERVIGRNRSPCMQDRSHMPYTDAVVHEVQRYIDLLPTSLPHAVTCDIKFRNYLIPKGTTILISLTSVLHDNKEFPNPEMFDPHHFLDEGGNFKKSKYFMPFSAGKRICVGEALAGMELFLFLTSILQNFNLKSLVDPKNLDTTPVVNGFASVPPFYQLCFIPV
Source text: (§1) 1) Cytochrome P450 (CYP450) Activity Inhibition Evaluation

[5] = biological target: ERRβ (Homo sapiens, UniProt O95718); assay: ERRβ binding assay (selectivity test), TR-FRET
Experimental: as §3

[6] = assay type: in vitro ADME, human; details: 1 μM, 30 minutes, 37° C.
Experimental: 2) Microsomal Stability Evaluation
as §4

[7] = assay type: in vitro ADME, mouse; details: 1 μM, 30 minutes, 37° C.
Experimental: 2) Microsomal Stability Evaluation
as §4

[8] = tested on: ERRγ; assay type: cell-based
Experimental: AD293 was cultured in a 24-well plate for 24 hours, using a DMEM High glucose culture medium (Hyclone, USA) to which 0.5% FBS was added at a concentration of 9×10^4/well. The culture medium was replaced with a DMEM High glucose culture medium to which 10% FBS was added, treatment was performed with a mixture of a TransIT-LT1 transfection reagent (Minis, USA) and pCMX-Gal4-ERRγ, pFR-luciferase reporter plasmid, pCMV-β-gal, and culturing was performed for 24 hours. Thereafter, a luciferase activity assay and a β-gal assay were performed, respectively, with a lysate obtained after treatment with the arylethene derivative of the present invention for 24 hours. All results were derived from three or more independent repetitive experiments.

[9] = biological target: CYP2D6 (Homo sapiens (Human), UniProt P10635); assay: Cytochrome P450 activity inhibition, CYP2D6; assay type: in vitro ADME; details: 10 μM, human liver microsomes
CYP2D6, sequence (P10635 whole entry): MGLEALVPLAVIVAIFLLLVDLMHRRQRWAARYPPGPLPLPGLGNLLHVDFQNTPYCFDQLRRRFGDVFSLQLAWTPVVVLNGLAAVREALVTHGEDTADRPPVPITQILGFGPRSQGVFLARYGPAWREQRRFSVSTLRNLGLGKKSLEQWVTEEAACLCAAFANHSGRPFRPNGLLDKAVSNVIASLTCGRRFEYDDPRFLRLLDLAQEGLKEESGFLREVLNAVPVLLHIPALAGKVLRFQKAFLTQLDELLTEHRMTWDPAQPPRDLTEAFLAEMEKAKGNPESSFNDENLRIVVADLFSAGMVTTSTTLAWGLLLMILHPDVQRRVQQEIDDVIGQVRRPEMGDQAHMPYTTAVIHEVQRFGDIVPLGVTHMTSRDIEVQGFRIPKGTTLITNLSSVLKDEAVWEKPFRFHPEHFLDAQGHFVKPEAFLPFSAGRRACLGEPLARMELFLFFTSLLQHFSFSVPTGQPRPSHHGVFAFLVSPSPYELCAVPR
Source text: as §1

[10] = biological target: CYP3A4 (Homo sapiens (Human), UniProt P08684); assay: Cytochrome P450 activity inhibition, CYP3A4; assay type: in vitro ADME; details: 10 μM, human liver microsomes
CYP3A4, sequence (P08684 whole entry): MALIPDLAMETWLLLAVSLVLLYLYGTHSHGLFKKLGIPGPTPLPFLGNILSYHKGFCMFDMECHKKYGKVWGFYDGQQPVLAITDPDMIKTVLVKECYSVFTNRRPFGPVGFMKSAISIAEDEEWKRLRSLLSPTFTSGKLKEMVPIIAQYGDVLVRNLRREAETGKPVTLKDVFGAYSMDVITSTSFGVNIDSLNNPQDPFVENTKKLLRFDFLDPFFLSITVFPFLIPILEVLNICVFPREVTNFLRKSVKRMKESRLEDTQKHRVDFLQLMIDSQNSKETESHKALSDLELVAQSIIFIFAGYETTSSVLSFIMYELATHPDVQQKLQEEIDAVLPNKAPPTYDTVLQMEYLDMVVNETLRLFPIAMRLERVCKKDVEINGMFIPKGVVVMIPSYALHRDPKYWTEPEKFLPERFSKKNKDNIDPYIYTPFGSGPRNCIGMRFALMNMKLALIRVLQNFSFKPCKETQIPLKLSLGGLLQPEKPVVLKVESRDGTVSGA
Experimental: Thereafter, in order to complete the reaction, an acetonitrile solution containing an internal standard material (Terfenadine) was added thereto, centrifugation (14,000 rpm, 4° C.) was performed for 5 minutes, and a supernatant was injected into a LC-MS/MS system to analyze the metabolites of the substrate drug, thereby evaluating drug metabolism enzyme inhibition by the arylethene derivative of the present invention.

[11] = biological target: CYP2C19 (Homo sapiens (Human), UniProt P33261); assay: Cytochrome P450 activity inhibition, CYP2C19; assay type: in vitro ADME; details: 10 μM, human liver microsomes
CYP2C19, sequence (P33261 whole entry): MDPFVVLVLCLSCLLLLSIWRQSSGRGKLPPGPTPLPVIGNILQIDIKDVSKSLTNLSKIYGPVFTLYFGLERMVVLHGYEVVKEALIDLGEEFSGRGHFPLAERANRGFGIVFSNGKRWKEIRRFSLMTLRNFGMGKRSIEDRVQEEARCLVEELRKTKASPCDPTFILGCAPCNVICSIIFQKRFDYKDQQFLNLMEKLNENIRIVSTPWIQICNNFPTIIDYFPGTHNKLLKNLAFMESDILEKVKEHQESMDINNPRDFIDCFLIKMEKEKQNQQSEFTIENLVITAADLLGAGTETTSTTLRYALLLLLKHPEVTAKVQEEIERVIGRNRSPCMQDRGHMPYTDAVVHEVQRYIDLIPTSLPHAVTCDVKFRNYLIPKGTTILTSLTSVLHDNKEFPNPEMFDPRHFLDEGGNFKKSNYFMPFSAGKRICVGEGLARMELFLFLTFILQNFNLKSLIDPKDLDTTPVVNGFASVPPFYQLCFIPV
Source text: as §1

[12] = assay type: in vitro ADME, rat; details: 1 μM, 30 minutes, 37° C.
Experimental: 2) Microsomal Stability Evaluation
as §4

[13] = biological target: CYP1A2 (Homo sapiens (Human), UniProt P05177); assay: Cytochrome P450 activity inhibition, CYP1A2; assay type: in vitro ADME; details: 10 μM, human liver microsomes
CYP1A2, sequence (P05177 whole entry): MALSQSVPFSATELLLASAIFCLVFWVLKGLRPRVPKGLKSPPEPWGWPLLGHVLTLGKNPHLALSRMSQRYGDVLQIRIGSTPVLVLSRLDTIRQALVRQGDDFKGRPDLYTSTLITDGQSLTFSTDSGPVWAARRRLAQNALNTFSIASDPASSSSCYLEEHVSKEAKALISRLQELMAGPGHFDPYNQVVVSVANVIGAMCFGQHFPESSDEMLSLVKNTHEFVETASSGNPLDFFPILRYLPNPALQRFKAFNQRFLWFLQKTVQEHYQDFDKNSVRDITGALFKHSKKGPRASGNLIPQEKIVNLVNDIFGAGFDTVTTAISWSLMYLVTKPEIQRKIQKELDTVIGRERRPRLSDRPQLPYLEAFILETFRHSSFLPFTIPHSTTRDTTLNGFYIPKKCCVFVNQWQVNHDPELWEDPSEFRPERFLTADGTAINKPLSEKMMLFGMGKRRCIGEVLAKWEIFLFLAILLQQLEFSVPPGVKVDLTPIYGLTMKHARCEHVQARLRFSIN
Source text: as §1

[14] = assay type: in vitro ADME; details: PBS pH 7.4, 25° C., 5 hours
Experimental: 3) Parallel Artificial Membrane Permeability Assay (PAMPA) Evaluation
PAMPA is a method which has been developed for testing cell membrane permeability of a material in a test tube, and has been performed using a lipid tri-layer PVDF membrane available from Corning Gentest (NY, US), the used reagents were all purchased from Sigma (MO, US). First, a test material is diluted in PBS (pH 7.4) to a final concentration of 10 mM, 300 mL of the solution is added to the bottom well of a 96-transwell equipped with a PVDF membrane, and 200 mL of PBS is added to the upper well. Then, a plate is reacted at 25° C. for 5 hours, 20 mL of the solution in each well is transferred to a new container, and 80 mL of acetonitrile containing an internal standard material (4 mM chloropropamide) is added thereto. A concentration of the material in the solution is analyzed using LC-MS/MS (ThermoFisher Scientific, MO, US), and the transmittance of the material is calculated according to the equation reported in the reference document. • Reference document: A novel design of artificial membrane for improving the PAMPA model.

[15] = biological target: ERR gamma ligand-binding domain (LBD) (Homo sapiens (Human), UniProt P62508); assay: ERRγ binding assay (inverse agonist assay), TR-FRET
ERR gamma ligand-binding domain (LBD), sequence (P62508 233-457): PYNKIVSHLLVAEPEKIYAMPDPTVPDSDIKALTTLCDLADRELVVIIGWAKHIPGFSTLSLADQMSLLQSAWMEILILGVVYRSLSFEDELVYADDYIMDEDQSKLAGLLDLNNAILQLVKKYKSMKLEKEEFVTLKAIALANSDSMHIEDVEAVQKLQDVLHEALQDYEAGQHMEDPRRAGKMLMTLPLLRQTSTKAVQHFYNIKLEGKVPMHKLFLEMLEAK
Experimental: 1) ERRγ Binding Assay (Inverse Agonist Assay)
as §3

[16] = tested on: CAL-62/effluc mouse tumor model; assay: Bio-distribution study, 125I uptake in CAL-62/effluc tumor; assay type: in vivo
Experimental: Nude mice (Balb/c nu/nu, female, 6 weeks old) were used, and all animals were normally raised in DMRC center animal laboratory of Kyungbuk National University Hospital in Chilgok. 5×10^6 CAL-62/effluc cells were subcutaneously injected into the left femoral region of the nude mouse to form a tumor. The tumor was extracted, divided into small pieces (20 mg or more), and then intradermally injected into the nude mouse to form a tumor.
After 4 hours of administration, all organs including a parent tumor were extracted, and each organ was weighed. Thereafter, each organ was transferred to a 5 mL test tube, and radioactivity in the organ was measured using a gamma counter.

[17] = tested on: NIS mRNA in CAL62 cells; assay: Quantitative RT-PCR, NIS mRNA; assay type: cell-based
Experimental: (§2) Total RNA was separated using Trizol (Invitrogen, Carlsbad, Calif.). Total RNA (2 ug) was reverse-transcribed into cDNA with RevertAid First Strand cDNA Synthesis Kit (Thermo Scientific, Pittsburgh, Pa.). Genes were amplified with a ViiA 7 Real-Time PCR System instrument (Applied Biosystems) using the primer of each target gene and YBR Green PCR master mix (Applied Biosystems, Foster City, Calif.), using a cDNA template. The primer sequence of each target gene is as follows: ERRγ (forward, 5′-CAG ACG CCA GTG GGA GCT A-3′; reverse, 5′-TGGCGAGTCAAGTCCGTTCT-3′), NIS (forward, 5′-TCTAACCGATGCTCACCTCTTCTG-3′; reverse, 5′-AGATGATGGCACCTCCTTGAACC-3′), and acidic ribosomal protein 36B4 (forward, 5′-CCA CGC TGC TGA ACA TGC T-3′; reverse, 5′-TCGAACACCTGCTGGATGAC-3′). Each target gene was normalized using a 36B4 gene.

[18] = tested on: CAL62 cells; assay: Clonogenic assay with 131I; assay type: cell-based; details: alone
Experimental: The cells were plated in a 6-well plate, and allowed to stand for 24 hours. […] The cells were washed with cold bHBSS, and allowed to stand in a normalized culture medium for a time corresponding to six doublings. Finally, the cells were fixed in a 4% paraformaldehyde (PFA) solution and stained with 0.05% crystal violet.

[19] = Weight change of mice during administration; details: all groups
[20] = tested on: NIS protein in CAL62 cells; assay: Western blot, total and membrane-localized NIS protein; assay type: cell-based, human
[21] = tested on: ERRγ mRNA in CAL62 cells; assay: Quantitative RT-PCR, ERRγ mRNA; assay type: cell-based
Experimental: as §2

[22] = tested on: ERRγ protein in CAL62 cells; assay: Western blot, ERRγ protein; assay type: cell-based
[23] = tested on: CAL-62 cells; assay: 125I uptake assay in anaplastic thyroid cancer cells; assay type: cell-based

ERR alpha LBD, sequence (P11474 193-421, species assumed): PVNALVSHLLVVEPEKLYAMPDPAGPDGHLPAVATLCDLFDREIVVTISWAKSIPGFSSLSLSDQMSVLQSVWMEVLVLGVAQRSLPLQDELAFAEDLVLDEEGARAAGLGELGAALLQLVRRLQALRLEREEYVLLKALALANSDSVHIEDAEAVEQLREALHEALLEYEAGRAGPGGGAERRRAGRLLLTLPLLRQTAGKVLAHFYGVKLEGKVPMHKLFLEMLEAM
ER alpha ligand-binding domain (LBD), sequence (P03372 whole entry, looked up, the tested form may be a part): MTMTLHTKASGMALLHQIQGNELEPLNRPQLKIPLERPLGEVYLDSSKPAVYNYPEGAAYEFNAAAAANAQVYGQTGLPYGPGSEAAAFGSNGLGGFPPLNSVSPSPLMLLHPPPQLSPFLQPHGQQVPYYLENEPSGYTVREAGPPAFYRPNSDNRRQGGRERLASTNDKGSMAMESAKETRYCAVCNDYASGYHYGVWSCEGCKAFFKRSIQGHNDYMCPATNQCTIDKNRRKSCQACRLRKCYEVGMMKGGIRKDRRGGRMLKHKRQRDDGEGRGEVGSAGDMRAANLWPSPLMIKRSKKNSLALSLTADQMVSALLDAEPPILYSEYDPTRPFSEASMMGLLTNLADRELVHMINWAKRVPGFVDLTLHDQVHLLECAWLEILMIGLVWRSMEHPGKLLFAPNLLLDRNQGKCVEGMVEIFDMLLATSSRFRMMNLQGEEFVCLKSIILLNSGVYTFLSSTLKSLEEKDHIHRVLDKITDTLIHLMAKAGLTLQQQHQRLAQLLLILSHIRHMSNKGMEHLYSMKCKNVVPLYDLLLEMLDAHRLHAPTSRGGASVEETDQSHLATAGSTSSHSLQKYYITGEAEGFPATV

| Structure (SMILES) | IC50 [1] | IC50 [2] | MS (Microsomal Stability) (%) dog [3] | CYP inhibition (% of control) 2C9 [4] | MS (Microsomal Stability) (%) human [6] | MS (Microsomal Stability) (%) mouse [7] | CYP inhibition (% of control) 2D6 [9] | CYP inhibition (% of control) 3A4 [10] | CYP inhibition (% of control) 2C19 [11] | MS (Microsomal Stability) (%) rat [12] | CYP inhibition (% of control) 1A2 [13] | also measured |
| --- | --- | --- | --- | --- | --- | --- | --- | --- | --- | --- | --- | --- |
| OCCC/C(=C(\c1ccc(O)cc1)c1ccc(C2CCNCC2)cc1)c1ccccc1 [Compound 20j] | > 10000 nM | 992 nM | 68.3% | 77.1 % of control | 76.8% | 25.3% | 89.3 % of control | 66.2 % of control | 62 % of control | 84.5% | 93.6 % of control | IC50 [5]: 4930 nM; Functional Assay at 10 μM (% of control), Cpds ([8]; 10 μM, AD293, 24 hours): 1.41 % of control; Functional Assay, Cpds/Ref 5182 ([8]; activity relative to reference compound GSK5182): 1.38 |
| OCCC/C(=C(\c1ccc(O)cc1)c1ccc(C2CCN(C3CCCCC3)CC2)cc1)c1ccccc1 [Compound 22p] | 9700 nM | 2120 nM | 77.7% | 81.8 % of control | 72.3% | 40.4% | 79.6 % of control | 90.6 % of control | 61.5 % of control | 75.3% | 88.1 % of control | Permeability Pampa [14]: 0.2 10^−6 cm/s; IC50 [15]: 99 nM |
| CC(C)N1CCN(c2ccc(C(=C(CCCO)c3ccccc3)c3ccc(O)cc3)cc2)CC1 [Compound 18a] | – | – | – | – | – | – | – | – | – | – | 88 % of control | radioactive uptake in CAL62 tumor, increase vs vehicle group ([16]; 100 mpk orally daily for 6 days): 4.4 times; radioactive uptake in CAL62 tumor, increase vs vehicle group ([16]; 200 mpk orally daily for 6 days): 16.2 times; NIS mRNA expression, increase vs vehicle-treated group [17]: about 2 times; cytotoxic effect in clone formation assay [18]: minimal cytotoxic effect; weight change in the mice [19]: abrupt weight change in the mice was not shown; increase in membrane fully glycosylated NIS protein [20]: 8.1 times; increase in membrane partially glycosylated NIS protein [20]: 6.4 times; total NIS protein expression, change vs vehicle treated group ([20]; text says significantly increased, then decreased): about 1.9 times; ERRγ mRNA expression, decrease vs vehicle treated group [21]: about 16 times; ERRγ protein expression, decrease vs vehicle treated group [22]: about 2.8 times; concentration of maximum increase of iodine uptake ([23]; CAL62 cells): 12 µM; radioactive iodine uptake in CAL62 cells ([23]; for each concentration and each time): significant increase |
